A short description of this assay: Effect of DHA derivatives in adipose prone mice during 4 months of dietary interventions (Example 5a). Format: in vivo, male C57BL/6 mice. Conditions: for Body wt. gain / Body weight / NEFA / Insulin / TAGs: 4 months; for Body weight: * = significant vs cHF (P<0.05); for AUCglucose: intraperitoneal glucose tolerance test; for NEFA: non-esterified fatty acids; for Insulin: plasma; for TAGs: serum triglycerides. The method, then:
All experiments were performed on male C57BL/6 mice, either a substrain C57BL/N (supplier: Charles River, Germany, n=160, experiments A-C, see below), or a substrain C57BL/6J (supplier: the Jackson laboratory, Bar Harbor, Me., USA, n=32, experiment D). Total numbers of animals used were higher (n=170 and 36, respectively), because of culling. In the latter case, animals were bred for several generations (<20) at the Institute of Physiology. At the beginning of the treatment, animals were 14-week-old and their body weight range was 23.6-27.1 g. One week before the study start, animals were sorted according to their body weight and assigned to subgroups (n=8) of similar mean body weight. This method allowed for culling of about 5-10% of animals showing the lowest and highest body weight, respectively. The animals eliminated from the study at this stage were sacrificed by cervical dislocation. Complete health check of mice was performed by the supplier Charles River and at the start of study serological tests were performed by ANLAB (Prague, Czech Republic). In addition, regular health checks were performed in the animal house in 3-mo-intervals using sentinel mice and serological examinations (ANLAB). In all the tests, the animals were free of specific pathogens.
• (i) Chow diet (ssniff R/M-H from SSNIFF Spezialdieten Gmbh, Soest, Germany; see also http://ssniff.de) with protein, fat and carbohydrate forming 33, 9, and 58 energy %, respectively • (ii) High-fat diet prepared in the laboratory (cHF diet) with protein, fat and carbohydrate forming 15, 59, and 26 energy %, respectively, and well characterized fatty acid composition (with most of the lipids coming from corn oil; see Ruzickova 2004) • (iii) cHF diets in which 0.15, 0.5, and 1.5% of fat (specifically the corn oil constituent) was replaced by various PRB-compounds, namely PRB1, PRB2, PRB5, PRB7, and PRB8, or by DHA. All these compounds were in the form of ethyl esters, provided by Pronova Biocare a.s. in sealed containers. Chemical composition of the PRB-compounds was unknown to the laboratory performing the experiments (Institute of Physiology, Academy of Sciences Prague, Czech Republic).
The study was based on 4 individual experiments. In each of the experiments, different PRB-compounds (or DHA, respectively) admixed to cHF diet in three different concentrations (0.15, 0.5, and 1.5% of the fat content) were tested. In each experiment, a subgroup of plain cHF diet-fed mice was included and served as a control. Mice were caged in groups of 4 and fed standard chow diet until 3 mo of age, when animals (n=8-13) were randomly assigned to the different test diets. After 2 mo on this new diet (at 5 mo of age), animals were fasted overnight and in the morning, intraperitoneal Glucose Tolerance Test (GTT) was performed. Animals were sacrificed after 4 months on the experimental diets, at 7 mo of age, and the end-point analysis were performed.

On to `CC/C=C\C/C=C\C/C=C\C/C=C\C/C=C\C/C=C\CC(SCC)C(=O)OCC` (stereo not drawn) [PRB-7, α-tioethyl docosahexaenoic acid ethyl ester], for which, under “0.15% concentration”, the Fasted glucose is 141 ± 9 mg/dL, the “Body wt. gain” value is recorded as 23.2 ± 0.7 grams, the Body weight is on record as 47.4 ± 0.8* grams and the AUCglucose was 1425 ± 97 mM × 180 min. In addition, for the setting “0.15% concentration”, the NEFA was 0.85 ± 0.06 mmol/L, the Insulin came out at 3.76 ± 0.72 ng/mL and the TAGs was determined as 1.41 ± 0.11 mmol/L. Where the note is “0.5% concentration”, this compound registered a Fasted glucose of 152 ± 6 mg/dL, a Body wt. gain of 24.8 ± 0.8 grams, a Body weight of 48.8 ± 0.9 grams and an AUCglucose of 1674 ± 203 mM × 180 min. Besides, where the note is “0.5% concentration”, the NEFA is 0.87 ± 0.04 mmol/L, the Insulin is recorded as 4.10 ± 0.57 ng/mL and the TAGs was 1.42 ± 0.08 mmol/L. Moreover, where the note is “1.5% concentration”, the Fasted glucose stood at 120 ± 9 mg/dL, the Body wt. gain is on record as 21.7 ± 0.9 grams, the AUCglucose was 1122 ± 73 mM × 180 min and the NEFA worked out at 0.82 ± 0.06 mmol/L. Further, for the setting “1.5% concentration”, the Insulin is given as 4.42 ± 0.87 ng/mL and the TAGs was 1.15 ± 0.08 mmol/L. For the same compound, where the note is “1.5% concentration in cHF diet”, the Body weight is recorded as 45.9 ± 1.1* grams.

For the origin of these results see US7550613B2, “Compounds” (Pronova Biopharma Norge AS, priority 2005, dated 2009).
